Where a name gives a salt, the structure may show the parent alone.
System: mice
Assay: Neuropharmacological Assay (SmartCube): automated behavioral signature of compound-treated mice compared with a database of reference drug classes
Assay type: in vivo
Conditions: for minimal effective dose: Mus musculus, ip, read-out: MED (minimal effective dose); for minimal effective dose / MED (minimal effective dose): dose having 45% or more total activity in SmartCube, i.p., if only one dose was tested, that dose is shown; for AG / AN / AP / CE / MS / SH / UK / AD / AX / HL / PS: probability that activity matches this class of agents, 3.0 mg/kg i.p., 15 min before test
Procedure, shortened: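 Mice dosed i.p. 15 min before SmartCube testing, with compound in N-methyl-2-pyrrolidone/polyethylene glycol/propylene glycol. Video-captured behaviour is compared with a reference-drug signature database to give per-class probabilities, reported at 3.0 mg/kg. MED, from doses usually 0.3–10 mg/kg, is the lowest dose giving ≥45% total activity.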

Row | SMILES | minimal effective dose | AG | AN | AP | CE | MS | SH | UK | AD (hydrochloride, 3 mg/kg) | MED (minimal effective dose) (hydrochloride) | AX | HL | PS | UK (hydrochloride, 3 mg/kg) | AD | AP (hydrochloride, 3 mg/kg) | other results
1 | CC1(N)CCc2cscc2C1.Cl (single isomer, unassigned) [Compound 122, 5-methyl-6,7-dihydro-4H-2-benzothiophen-5-amine hydrochloride] | 1 mg/kg | ND (^ <4%) | ND (^ <4%) | ND (^ <4%) | ND (^ <4%) | ND (^ <4%) | ND (^ <4%) | ND (^ <4%) | +++ (≥49%) | – | – | – | – | – | – | – | AX (hydrochloride, 3 mg/kg): + (≥4%); HL (hydrochloride, 3 mg/kg): ND (^ <4%); PS (hydrochloride, 3 mg/kg): ND (^ <4%)
2 | CC1(N)CCc2cscc2C1.Cl (single isomer, unassigned) [Compound 123, 5-methyl-6,7-dihydro-4H-2-benzothiophen-5-amine hydrochloride] | – | ND (^ <4%) | ND (^ <4%) | ND (^ <4%) | ND (^ <4%) | ND (^ <4%) | ND (^ <4%) | ND (^ <4%) | + (≥4%) | – | – | – | – | – | – | – | MED (minimal effective dose): 1 mpk; AX (hydrochloride, 3 mg/kg): ND (^ <4%); HL (hydrochloride, 3 mg/kg): ++ (≥24%); PS (hydrochloride, 3 mg/kg): ++ (≥24%)
3 | Cl.c1scc2c1CCC(NC1CC1)C2 (single isomer, unassigned) [Compound 124, N-cyclopropyl-4,5,6,7-tetrahydro-2-benzothiophen-5-amine hydrochloride] | – | ND (^ <4%) | ND (^ <4%) | ND (^ <4%) | ND (^ <4%) | ND (^ <4%) | ND (^ <4%) | – | ND (^ <4%) | 3 mpk | ND (^ <4%) | ND (^ <4%) | ND (^ <4%) | +++ (≥49%) | – | – | –
4 | Cl.c1scc2c1CCC(NC1CC1)C2 (single isomer, unassigned) [Compound 125, N-cyclopropyl-4,5,6,7-tetrahydro-2-benzothiophen-5-amine hydrochloride] | – | ND (^ <4%) | ND (^ <4%) | ND (^ <4%) | ND (^ <4%) | ND (^ <4%) | ND (^ <4%) | – | +++ (≥49%) | 0.3 mpk | ND (^ <4%) | ND (^ <4%) | ND (^ <4%) | ND (^ <4%) | – | – | –
5 | Cl.FC1(F)CC(NC2CCc3cscc3C2)C1 (single isomer, unassigned) [Compound 126, N-(3,3-difluorocyclobutyl)-4,5,6,7-tetrahydro-2-benzothiophen-5-amine hydrochloride] | > 30 mg/kg | ND (^ <4%) | ND (^ <4%) | ND (^ <4%) | ND (^ <4%) | ND (^ <4%) | ND (^ <4%) | ND (^ <4%) | – | – | ND (^ <4%) | ND (^ <4%) | ND (^ <4%) | – | ND (^ <4%) | – | –
6 | Cl.FC1(F)CC(NC2CCc3cscc3C2)C1 (single isomer, unassigned) [Compound 127, N-(3,3-difluorocyclobutyl)-4,5,6,7-tetrahydro-2-benzothiophen-5-amine hydrochloride] | – | ND (^ <4%) | ND (^ <4%) | ND (^ <4%) | ND (^ <4%) | ND (^ <4%) | ND (^ <4%) | ND (^ <4%) | – | 30 mpk | ND (^ <4%) | ND (^ <4%) | ND (^ <4%) | – | ND (^ <4%) | – | –
7 | c1scc2c1CCC(NC1COC1)C2 (single isomer, unassigned) [Compound 128, N-(4,5,6,7-tetrahydro-2-benzothiophen-5-yl)oxetan-3-amine] | 10 mg/kg | ND (^ <4%) | ND (^ <4%) | ND (^ <4%) | ND (^ <4%) | ND (^ <4%) | ND (^ <4%) | + (≥4%) | – | – | ND (^ <4%) | ND (^ <4%) | ND (^ <4%) | – | ND (^ <4%) | – | –
8 | c1scc2c1CCC(NC1COC1)C2 (single isomer, unassigned) [Compound 129, N-(4,5,6,7-tetrahydro-2-benzothiophen-5-yl)oxetan-3-amine] | – | – | – | – | – | – | – | + (≥4%) | – | – | – | – | – | – | ND (^ <4%) | – | MED (minimal effective dose): 10 mpk
9 | CNC1CCc2scc(Cl)c2C1 (single isomer, unassigned) [Compound 131, 3-chloro-N-methyl-4,5,6,7-tetrahydrobenzothiophen-5-amine hydrochloride] | 3 mg/kg | ND (^ <4%) | ND (^ <4%) | – | ND (^ <4%) | – | ND (^ <4%) | – | + (≥4%) | – | ND (^ <4%) | ND (^ <4%) | – | ND (^ <4%) | – | ++ (≥24%) | MS (hydrochloride, 3 mg/kg): + (≥4%); PS (hydrochloride, 3 mg/kg): ND (^ <4%)
10 | CNC1CCc2scc(Cl)c2C1 (single isomer, unassigned) [Compound 132, 3-chloro-N-methyl-4,5,6,7-tetrahydrobenzothiophen-5-amine hydrochloride] | – | ND (^ <4%) | ND (^ <4%) | – | ND (^ <4%) | – | ND (^ <4%) | – | ND (^ <4%) | – | ND (^ <4%) | ND (^ <4%) | – | ++ (≥24%) | – | + (≥4%) | MED (minimal effective dose): 3 mpk; MS (hydrochloride, 3 mg/kg): ND (^ <4%); PS (hydrochloride, 3 mg/kg): + (≥4%)
11 | CNC1CCc2csc(C#N)c2C1 (single isomer, unassigned) [Compound 133, 6-(methylamino)-4,5,6,7-tetrahydro-2-benzothiophene-1-carbonitrile hydrochloride] | – | ND (^ <4%) | ND (^ <4%) | – | ND (^ <4%) | ND (^ <4%) | ND (^ <4%) | – | +++ (≥49%) | <1 mpk | ND (^ <4%) | ND (^ <4%) | ND (^ <4%) | ND (^ <4%) | – | + (≥4%) | –
12 | CNC1CCc2csc(C#N)c2C1 (single isomer, unassigned) [Compound 134, 6-(methylamino)-4,5,6,7-tetrahydro-2-benzothiophene-1-carbonitrile hydrochloride] | – | ND (^ <4%) | ND (^ <4%) | – | ND (^ <4%) | ND (^ <4%) | ND (^ <4%) | – | ND (^ <4%) | 3 mpk | ND (^ <4%) | ND (^ <4%) | ND (^ <4%) | +++ (≥49%) | – | ND (^ <4%) | –
13 | NC1COc2ccsc2C1 (single isomer, unassigned) [Compound 135, 6,7-dihydro-5H-thieno[3,2-b]pyran-6-amine hydrochloride] | 3 mg/kg | ND (^ <4%) | ND (^ <4%) | – | ND (^ <4%) | ND (^ <4%) | – | – | – | – | ND (^ <4%) | ND (^ <4%) | ND (^ <4%) | ND (^ <4%) | ND (^ <4%) | + (≥4%) | SH (hydrochloride, 3 mg/kg): ++ (≥24%)
14 | NC1COc2ccsc2C1 (single isomer, unassigned) [Compound 136, 6,7-dihydro-5H-thieno[3,2-b]pyran-6-amine hydrochloride] | – | ND (^ <4%) | ND (^ <4%) | – | ND (^ <4%) | ND (^ <4%) | – | – | – | >3 mpk | ND (^ <4%) | ND (^ <4%) | ND (^ <4%) | + (≥4%) | ND (^ <4%) | ND (^ <4%) | SH (hydrochloride, 3 mg/kg): ND (^ <4%)
15 | CNC1CCc2scc(F)c2C1 (single isomer, unassigned) [Compound 137, 3-fluoro-N-methyl-4,5,6,7-tetrahydrobenzothiophen-5-amine hydrochloride] | 1 mg/kg | ND (^ <4%) | ND (^ <4%) | – | ND (^ <4%) | ND (^ <4%) | ND (^ <4%) | ND (^ <4%) | – | – | – | ND (^ <4%) | ND (^ <4%) | – | ND (^ <4%) | ++++ (≥74%) | AX (hydrochloride, 3 mg/kg): ND (^ <4%)
16 | CNC1CCc2scc(F)c2C1 (single isomer, unassigned) [Compound 138, 3-fluoro-N-methyl-4,5,6,7-tetrahydrobenzothiophen-5-amine hydrochloride] | – | ND (^ <4%) | ND (^ <4%) | – | ND (^ <4%) | ND (^ <4%) | ND (^ <4%) | ND (^ <4%) | – | – | – | ND (^ <4%) | ND (^ <4%) | – | ND (^ <4%) | +++ (≥49%) | MED (minimal effective dose): 1 mpk; AX (hydrochloride, 3 mg/kg): ++ (≥24%)

— US20260274814A1, “THIENYL COMPOUNDS FOR THE TREATMENT OF A CENTRAL NERVOUS SYSTEM DISEASE OR DISORDER” (Coreterra Therapeutics, Inc., priority 2023, published 2026)
